“Also recorded” adds a separate entry of the source.

The data set has as its system VK-AD11 mice. Description: Reversal of the neurodegenerative phenotype of VK-AD11 mice by intranasal NGF administration. The format is in vivo. The note with it: VK-AD11 mice from 4 months of age, NGF 10 μM solution intranasally every 2 days. The protocol: All experiments were conducted in mice starting from 4 months of age, when neurodegeneration is not so readily apparent. NGF was administered by intranasal injection (Frey et al., 1997) conducted every 2 days. NGF was administered as a 10 μM solution in phosphate buffer pH 7.4, injecting 3 μl per nostril every 2 min and alternating nostrils. The VK-AD11 control mice and non transgenic mice were treated only with phosphate buffer. For each administration, the infusion lasted 30 min. This non invasive method for administering NGF allows to avoid the use of the intraventricular injections to apply NGF directly to the cerebral tissue.
To verify the administration of NGF, the mice were sacrificed 2 months from the begining of the treatment. The brain was removed and fixed in paraformaldehyde to conduct histological analyses.

On to “NGF: Nerve Growth Factor, administered intranasally as a 10 μM solution in phosphate buffer pH 7.4”, for which, for the setting “histology 2 months from beginning of treatment (FIG. 18A)”, the cholinergic deficit entry is on record as “improves; also recorded: a similar phenotype to that of the non transgenic control mice was re-established”. Moreover, for the setting “histology 2 months from beginning of treatment (FIG. 18B)”, the “deposition of β-amyloid (number of cells containing β-amyloid)” value is recorded as “decreases; also recorded: a similar phenotype to that of the non transgenic control mice was re-established”. The “hyperphosphorylated tau (number of cells that express phosphorylated tau)” value (histology 2 months from beginning of treatment (FIG. 18C)) was “decreases; also recorded: a similar phenotype to that of the non transgenic control mice was re-established”.

The values above are taken from patent US20070253907A1, “Non Human Transgenic Animal as Model of Neurodegenerative Diseases and for the Early Diagnosis Thereof” (priority 2004, published 2007).
